{"source": "patent US9499493B2", "about": "“2,4-pyrimidinediamine compounds and their uses” (Rigel Pharmaceuticals, Inc., priority 2002, dated 2016)", "key": {"[1]": {"test_system": "FcγRI-mediated degranulation", "assay": "FcγRI receptor-mediated degranulation (activation with anti-human IgG Fab fragment)", "type": "cell-based", "settings": "cells not primed with IgE, activated with rabbit anti-human IgG Fab fragment"}, "[2]": {"assay": "in vitro chromosomal aberration assay"}, "[3]": {"type": "in vivo", "settings": "rat, 50, 150 and 300 mg/kg"}, "[4]": {"assay": "Pharmacokinetics / oral bioavailability in rats", "type": "in vivo", "settings": "rat, in vivo", "protocol": "Over 50 2,4-pyrimidinediamine compounds of the invention were tested for oral bioavailability. For the study, compounds were dissolved in various vehicles (e.g. PEG 400 solution and CMC suspension) for intravenous and oral dosing in the rats. Following administration of the drug, plasma samples were obtained and extracted. The plasma concentrations of the compounds were determined by high performance liquid chromatography/tandem mass spectrometry (LC/MS/MS) methods. Pharmacokinetic analyses were performed based on the plasma concentration data. The pharmacokinetic parameters of interest include Clearance (CL), Volume of distribution at steady-state (Vss), terminal half-life (t1/2), and oral bioavailability (% F)."}, "[5]": {"assay": "Mouse model of passive cutaneous anaphylaxis (PCA)", "type": "in vivo", "settings": "mouse, plasma, PO, 1.5% Avicel/water, 200 mg/kg, read-out: Plasma level (duration of action)", "protocol": "(§1) This model provides a direct measure of IgE-induced degranulation of tissue mast cells. In this model, IgE primed animals are exposed to an allergen challenge, and the change in permeability of dermal vasculature that results from histamine release from mast cells is measured by change in the amount of dye leakage into surrounding tissue. Inhibition of mediator release by compounds that modulate mast cell degranulation is easily measured by extracting the dye from the tissue.\n(§2) In the PCA assay mice are passively sensitized by intradermal injection with anti-dinitrophenol (DNP) IgE antibodies (Day −1). At predetermined times animals are treated with the test agent (Day 0). The modulatory effect of the agent on cutaneous mast cell degranulation is measured following intravenous injection of DNP conjugated to human serum albumin (HSA-DNP), together with Evans blue dye. The resulting cross-linking of the IgE receptor and subsequent mast cell degranulation-induced increase in vascular permeability is determined by measuring the amount of dye extravasation into the tissue. Dye is extracted from the tissue by formamide, and the absorbance of this extract is read at 620 nm."}, "[6]": {"test_system": "IgE-induced degranulation of tissue mast cells", "assay": "Mouse model of passive cutaneous anaphylaxis (PCA)", "type": "in vivo", "settings": "for Plasma level / % Inhibition (PCA): PO", "protocol": "as §1, §2"}, "[7]": {"settings": "mouse, in vivo"}, "[8]": {"assay": "in vivo", "settings": "mouse, po"}, "[9]": {"test_system": "Salmonella-Escherichia coli tester strains", "settings": "Salmonella / Escherichia coli"}, "[10]": {"test_system": "BMMC cells", "assay": "Phosphorylation of proteins downstream of Syk kinase in the IgE receptor cascade, activated BMMC cells", "type": "cell-based, mouse", "settings": "varying concentrations, FIG. 7"}, "[11]": {"test_system": "CHMC cells", "assay": "Phosphorylation of proteins downstream of Syk / LYN kinase in the FcεRI cascade, activated CHMC cells", "type": "cell-based, human", "settings": "varying concentrations, FIG. 10"}, "[12]": {"assay": "Immediacy (time course) of inhibitory activity", "type": "cell-based", "settings": "FIG. 5"}, "[13]": {"test_system": "CHMC cells", "assay": "anti-IgE-induced calcium ion flux in CHMC cells", "type": "cell-based, human", "settings": "10 μM compound"}, "[14]": {"test_system": "CHMC cells", "assay": "ionomycin-induced calcium ion flux in CHMC cells", "type": "cell-based, human", "settings": "10 μM compound"}, "[15]": {"assay": "14-day repeat-dose intranasal toxicity study in Cynomolgus monkeys", "type": "in vivo", "protocol": "A 14-day repeat-dose intranasal toxicity study in Cynomolgus monkeys was performed at doses of 2.1, 4.5 or 6.3 mg/kg/day. In life parameters included: clinical observations, body weights, food consumption, ophthalmology, blood pressure, electrocardiography, hematology, clinical chemistry, urinalysis, immunotoxicological assessment, gross necropsy, organ weights, toxicokinetic assessments and histopathology (including the nasal cavity)."}, "[16]": {"assay": "14-day repeat-dose intranasal toxicity study in New Zealand White rabbits", "type": "in vivo", "protocol": "A 14-day repeat-dose intranasal toxicity study in New Zealand White rabbits was performed at doses of 1.7, 3.4 or 5.0 mg/kg/day. In life parameters included: clinical observations, body weights, food consumption, ophthalmology, hematology, clinical chemistry, gross necropsy, organ weights, toxicokinetic assessments and histopathology (including the nasal cavity)."}, "[17]": {"assay": "14-day repeat-dose toxicity studies (summary of non-clinical safety program)", "type": "in vivo, rabbits and primates; mice and rats", "excerpt": "(§3) A short discussion of key toxicology studies is provided."}, "[18]": {"assay": "Core safety pharmacology battery (cardiovascular, respiratory, central nervous system function)", "settings": "in vivo", "excerpt": "as §3"}, "[19]": {"assay": "Genetic toxicology testing", "excerpt": "as §3"}, "[20]": {"assay": "Exposure to skin and eyes", "settings": "in vivo", "excerpt": "as §3"}, "[21]": {"assay": "Sheep model of allergic asthma (Ascaris suum challenge)", "type": "in vivo", "protocol": "Sheep develop bronchoconstriction within minutes of exposure to inhaled antigen (Ascaris suum), with maximal airflow obstruction during the early allergic response (EAR). Release of preformed mast cell mediators is likely responsible for this early phase of airflow obstruction. […] In the sheep, AHR develops a few hours following antigen challenge, and can persist for up to 2 weeks.\nIn the sheep model of allergic asthma, sheep are administered aerosols of test article via an endotracheal tube, followed by an aerosol challenge with antigen extracted from the roundworm, Ascaris suum, to which the sheep are naturally allergic. Allergen challenge leads to direct bronchoconstriction (both EAR and LAR) and a persistent non-specific AHR. These three characteristics are similar to those seen in human allergic asthmatics. The activity of the test agent is determined by changes in the lung resistance (RL), which is calculated from measurements of transpulmonary pressure, flow, and respiratory volume. […] The LAR is a less pronounced increase in RL, which starts approximately 5-6 hours following allergen challenge and is resolved by 8 hours post-challenge. Twenty-four hours after the challenge, a dose response to carbachol is measured to determine the AHR, which is expressed as the dose of carbachol required to increase RL by 400% over baseline. (This measurement is referred to as the provocative concentration of carbachol that elicits a 400% increase in RL over baseline (PC400). The data are compared to historical control data for the same individual when administered a saline control aerosol and challenged with Ascaris suum."}, "[22]": {"molecular_target": "Syk kinase (Homo sapiens (Human), UniProt P43405)", "assay": "Isolated Syk kinase: phosphorylation of a peptide substrate or endogenous substrate (LAT)", "settings": "increasing concentrations; FIG. 8"}, "[23]": {"settings": "67% PEG/33% citrate buffer, pretreatment 10 min, 50 mg/kg"}, "[24]": {"settings": "67% PEG/33% citrate buffer, pretreatment 10 min, 100 mg/kg"}, "[25]": {"settings": "67% PEG/33% citrate buffer, pretreatment 10 min, 200 mg/kg"}, "[26]": {"settings": "30 mg/sheep, pretreatment 15 min, 10% ethanol"}}, "note": "Like-named read-outs stand apart in the source and are kept apart here.", "data": [{"smiles": "Nc1cccc(Nc2ncc(F)c(Nc3cccc(N)c3)n2)c1", "note": "[R921302, N2,N4-Bis(3-aminophenyl)-5-fluoro-2,4-pyrimidinediamine]", "values": [{"measurement": "FcγRI-mediated degranulation (in words)", "setting": "[1]", "value": "inhibit FcγRI-mediated degranulation"}, {"measurement": "clastogenic potential", "setting": "[2]", "value": "not clastogenic"}, {"measurement": "tolerability, oral doses for 32 days", "setting": "[3]", "value": "appeared to be well tolerated"}, {"measurement": "metabolic stability in pharmacokinetics studies (in words)", "setting": "[4]", "value": "most metabolically stable compound"}, {"measurement": "concentration at 30 min", "setting": "[5]; pretreatment 30 min", "value": 88, "unit": "µg/mL"}, {"measurement": "concentration at 60 min", "setting": "[5]; pretreatment 60 min", "value": 53, "unit": "µg/mL"}, {"measurement": "concentration at 120 min", "setting": "[5]; pretreatment 120 min", "value": 61, "unit": "µg/mL"}, {"measurement": "concentration at 240 min", "setting": "[5]; pretreatment 240 min", "value": 8, "unit": "µg/mL"}, {"measurement": "Plasma level", "setting": "[6]; 1.5% Avicel/water, pretreatment 60 min, 50 mg/kg", "value": 25, "unit": "µg/mL"}, {"measurement": "Plasma level", "setting": "[6]; 1.5% Avicel/water, pretreatment 60 min, 100 mg/kg", "value": 38, "unit": "µg/mL"}, {"measurement": "Plasma level", "setting": "[6]; 1.5% Avicel/water, pretreatment 60 min, 150 mg/kg", "value": 64, "unit": "µg/mL"}, {"measurement": "Plasma level", "setting": "[6]; 1.5% Avicel/water, pretreatment 60 min, 200 mg/kg", "value": 105, "unit": "µg/mL"}, {"measurement": "time prior to antigen-induced receptor signaling over which vascular permeability was inhibited before efficacy began to decrease", "setting": "[6]; mouse, in vivo", "value": "1 to 2", "unit": "h"}, {"measurement": "oral dose tolerated for up to 7-days", "setting": "[7]", "value": 1000, "unit": "mg/kg"}, {"measurement": "tolerability, 28-day oral toxicity study", "setting": "[7]; 100 mg/kg", "value": "appeared to be well tolerated"}, {"measurement": "tolerability, 28-day oral toxicity study", "setting": "[7]; 300 mg/kg", "value": "not tolerated"}, {"measurement": "NOAEL at 14 days", "setting": "[8]", "value": 100, "unit": "mg/kg"}, {"measurement": "Ames test result", "setting": "[9]", "value": "test positive in tester strain TA98 with S9 and TA1537, with and without metabolic activation"}]}, {"smiles": "Oc1cccc(Nc2ncc(F)c(Nc3cccc(O)c3)n2)c1", "note": "[R921218, N2,N4-Bis(3-hydroxyphenyl)-5-fluoro-2,4-pyrimidinediamine]", "values": [{"measurement": "phosphorylation of various proteins downstream of Syk kinase", "setting": "[10]", "value": "inhibit"}, {"measurement": "phosphorylation of proteins downstream of Syk kinase", "setting": "[11]", "value": "inhibit"}, {"measurement": "onset of inhibitory activity", "setting": "[12]", "value": "immediacy of the inhibitory activity"}, {"measurement": "FcγRI-mediated degranulation (in words)", "setting": "[1]", "value": "inhibit FcγRI-mediated degranulation"}, {"measurement": "anti-IgE-induced Ca2+ flux", "setting": "[13]", "value": "inhibited"}, {"measurement": "ionomycin-induced Ca2+ flux", "setting": "[14]", "value": "no effect"}, {"measurement": "NOAEL at 14 days", "setting": "[15]; cynomolgus monkey, in vivo, inhaled or intranasal, intranasal, Cynomolgus monkeys, read-out: NOAEL (no observed adverse effect level)", "value": 6.3, "unit": "mg/kg/day"}, {"measurement": "adverse findings", "setting": "[15]; intranasal 2.1, 4.5 or 6.3 mg/kg/day", "value": "no adverse findings"}, {"measurement": "adverse findings", "setting": "[16]; intranasal 1.7, 3.4 or 5.0 mg/kg/day", "value": "no adverse findings"}, {"measurement": "NOAEL at 14 days", "setting": "[16]; rabbit, in vivo, inhaled or intranasal, intranasal, New Zealand White rabbits, read-out: NOAEL (no observed adverse effect level)", "value": 5, "unit": "mg/kg/day"}, {"measurement": "dose limiting toxicity, intranasal route, non-rodents (rabbits and primates)", "setting": "[17]", "value": "no dose limiting toxicity"}, {"measurement": "dose limiting toxicity, oral route, rodents (mice and rats)", "setting": "[17]", "value": "no dose limiting toxicity"}, {"measurement": "findings in core safety pharmacology battery", "setting": "[18]", "value": "no adverse findings"}, {"measurement": "mutagenic or clastogenic potential", "setting": "[19]", "value": "no evidence for mutagenic or clastogenic potential"}, {"measurement": "effects after exposure to skin and eyes", "setting": "[20]", "value": "nor were there untoward effects"}, {"measurement": "% Inhibition (PCA)", "setting": "[6]; [23]", "value": 7, "unit": "%"}, {"measurement": "Plasma level", "setting": "[6]; [23]", "value": 3, "unit": "µg/mL"}, {"measurement": "% Inhibition (PCA)", "setting": "[6]; [24]", "value": 11, "unit": "%"}, {"measurement": "Plasma level", "setting": "[6]; [24]", "value": 4, "unit": "µg/mL"}, {"measurement": "% Inhibition (PCA)", "setting": "[6]; [25]", "value": 50, "unit": "%"}, {"measurement": "Plasma level", "setting": "[6]; [25]", "value": 18, "unit": "µg/mL"}, {"measurement": "FcεR-mediated vascular leakage with increasing doses (in words)", "setting": "[6]; solution (67% PEG/33% citrate buffer) or aqueous suspension (1.5% Avicel)", "value": "dose-dependent inhibition"}, {"measurement": "AHR (% inhibition)", "setting": "[21]; [26]", "value": 101, "unit": "%"}, {"measurement": "EAR (% inhibition)", "setting": "[21]; [26]", "value": 66, "unit": "%"}, {"measurement": "LAR (% inhibition)", "setting": "[21]; [26]", "value": 78, "unit": "%"}, {"measurement": "EAR (in words)", "setting": "[21]; aqueous suspension", "value": "failed to inhibit"}, {"measurement": "Syk kinase phosphorylation of a peptide substrate", "setting": "[22]", "value": "dose responsive inhibition"}, {"measurement": "Syk kinase phosphorylation of an endogenous substrate (LAT)", "setting": "[22]", "value": "dose responsive inhibition"}]}]}
